Measurements published in the Deep4Chem optical property database.
Values belong to the compound of their own block, whether it stands above or below them.

Assay: solvent given as SMILES

absorption maximum (in CO): 636 nm
absorption maximum (in O): 634 nm
SMILES: CN(C)c1ccc2c(c1)[Si](C)(C)C1=CC(=[N+](C)C)C=CC1=C2

absorption maximum (in CCCCCC): 458 nm
absorption maximum (in CO): 456 nm
absorption maximum (in CS(C)=O): 463 nm
absorption maximum (in ClC(Cl)Cl): 460 nm
absorption maximum (in ClCCl): 463 nm
SMILES: O=S(=O)(/N=c1\oc2cccc3c4c(-c5ccccc5)oc5cccc(c(c1-c1ccccc1)c23)c54)C(F)(F)F

absorption maximum (in C1CCCCC1): 410 nm
SMILES: CCCC1(CCC)c2cc(-c3ccc(-c4ccc(OC)cc4)o3)ccc2-c2ccc(-c3ccc(-c4ccc(OC)cc4)o3)cc21

SMILES: CCN(CC)c1ccc2cc(-c3cn4ccccc4n3)c(=O)oc2c1
absorption maximum (in C1CCOC1): 408 nm
absorption maximum (in CC#N): 421 nm
absorption maximum (in CCO): 424 nm
absorption maximum (in CCOC(C)=O): 407 nm
absorption maximum (in CN(C)C=O): 425 nm
absorption maximum (in CO): 423 nm
absorption maximum (in CS(C)=O): 428 nm
absorption maximum (in Cc1ccccc1): 407 nm
absorption maximum (in ClC(Cl)Cl): 425 nm
absorption maximum (in ClCCl): 429 nm

SMILES: COc1ccc2c3ccc(OC)cc3n(-c3ccc(-c4nnc(C)o4)cc3)c2c1
absorption maximum (in Cc1ccccc1): 319 nm

SMILES: COc1ccc(-c2csc(/C(C#N)=C/c3ccc(C#N)cc3)n2)cc1
absorption maximum (in CC#N): 389 nm
absorption maximum (in CCO): 395 nm
absorption maximum (in CN(C)C=O): 395 nm
absorption maximum (in Cc1ccccc1): 400 nm
absorption maximum (in ClCCl): 396 nm

absorption maximum (in CC(C)O): 561 nm
absorption maximum (in CCO): 558 nm
absorption maximum (in CO): 556 nm
absorption maximum (in O): 548 nm
SMILES: O=C([O-])c1c(Cl)c(Cl)c(Cl)c(Cl)c1-c1c2cc(I)c(=O)c(I)c-2oc2c(I)c([O-])c(I)cc12

SMILES: Cc1ccc(C2=C3C=CC(Cl)=[N+]3[B-](F)(F)n3c(Cl)ccc32)cc1
absorption maximum (in C1CCCCC1): 514 nm
absorption maximum (in C1CCOC1): 511 nm
absorption maximum (in CC#N): 508 nm
absorption maximum (in CCOC(C)=O): 509 nm
absorption maximum (in CO): 508 nm
absorption maximum (in Cc1ccccc1): 516 nm
absorption maximum (in ClC(Cl)Cl): 515 nm

SMILES: CC(C)=O
absorption maximum (in CCCCCC): 279 nm

absorption maximum (in C1CCCCC1): 294 nm
SMILES: CCCC[Si](C)(C)c1cccc2ccccc12

absorption maximum (in C1CCOC1): 353 nm
absorption maximum (in C1COCCO1): 353 nm
absorption maximum (in CC#N): 350 nm
absorption maximum (in CCOC(C)=O): 356 nm
absorption maximum (in CN(C)C=O): 341 nm
absorption maximum (in ClC(Cl)Cl): 357 nm
SMILES: O=C(O)c1ccccc1Nc1ccccc1

absorption maximum (in C1CCOC1): 344 nm
SMILES: N#Cc1c(N2CCCCC2)cc(-c2ccc3ccc4cccc5ccc2c3c45)c2c1Cc1ccccc1-2

SMILES: CC(C)(C)c1ccc2c(c1)c1cc(C(C)(C)C)ccc1n2-c1cccc2c1Oc1c(-c3nc(-c4ccccc4)nc(-c4ccccc4)n3)cccc1C2(C)C
absorption maximum (in Cc1ccccc1): 346 nm

absorption maximum (in C1COCCO1): 274.85 nm
absorption maximum (in CC#N): 275 nm
absorption maximum (in O): 275 nm
SMILES: N#Cc1ccc2[nH]ccc2c1

absorption maximum (in CC#N): 572 nm
SMILES: CC1=C(/C=C/c2ccccc2)C2=Cc3c(/C=C/c4ccccc4)c(C)c(C)n3[B-](F)(F)[N+]2=C1C

absorption maximum (in CCCCCCC): 196 nm
SMILES: CC(C)=C(C)C

absorption maximum (in ClCCl): 648 nm
SMILES: CC(C)c1cccc(C(C)C)c1N1C(=O)c2ccc3cc4c(cc5ccc6c7c(ccc4c57)C(=O)N(c4c(C(C)C)cccc4C(C)C)C6=O)c4ccc(c2c34)C1=O

absorption maximum (in CC#N): 379 nm
SMILES: Cc1cc2nc3[nH]c(=O)n(C)c(=O)c3nc2cc1C

absorption maximum (in C1CCOC1): 344 nm
SMILES: c1ccc2c(c1)c1ccccc1n2-c1ccc2c(c1)c1ccccc1n2-c1cc2c3ccccc3n3c4ccccc4c(c1)c23

absorption maximum (in O): 621 nm
SMILES: CN(C)c1ccc2[c](c1)[Ge]([CH3])([CH3])[C]1=CC(=[N+](C)C)C=CC1=C2

SMILES: CC(C)(C)c1ccc2c(c1)sc1[n+]2[B-](F)(F)n2c(c3cccc4c(Br)ccc2c43)=N1
absorption maximum (in C1CCOC1): 494 nm
absorption maximum (in CC#N): 488 nm
absorption maximum (in CCCCCC): 490 nm
absorption maximum (in Cc1ccccc1): 498 nm
absorption maximum (in ClCCl): 463 nm

absorption maximum (in C1CCCCC1): 350 nm
absorption maximum (in CO): 350 nm
SMILES: COc1ccc(/C=C/c2nc3ccccc3s2)cc1

absorption maximum (in C1CCOC1): 410 nm
absorption maximum (in CC#N): 416 nm
absorption maximum (in CCO): 416 nm
absorption maximum (in CCOC(C)=O): 408 nm
absorption maximum (in CN(C)C=O): 423 nm
absorption maximum (in ClCCl): 417 nm
absorption maximum (in O): 434 nm
absorption maximum (in c1ccccc1): 409 nm
SMILES: CCCCn1c2ccc(/C=C(\C#N)c3ccc([N+](=O)[O-])cc3)cc2c2cc(Cn3c(-c4ccc5c(c4)c4ccccc4n5CCCC)nc4ccccc43)ccc21

absorption maximum (in c1ccccc1): 332 nm
SMILES: O=c1oc2ccccc2nc1-c1ccccc1

absorption maximum (in ClCCl): 372 nm
SMILES: CC(=O)c1c(N[C@@H](CC(C)C)C(=O)O)c2ccc(N(C)C)cc2oc1=O

absorption maximum (in CCCCCC): 445 nm
absorption maximum (in CO): 461 nm
SMILES: O=C1C=C(Nc2ccc(F)cc2)C(=O)c2ccccc21

absorption maximum (in CCO): 381 nm
SMILES: O=c1c2cc(F)c(O)cc2n(Cc2ccccc2)c2cc(O)c(F)cc12

absorption maximum (in c1ccccc1): 402 nm
SMILES: Nc1ccc2nc(-c3ccccc3)c(=O)oc2c1

absorption maximum (in ClCCl): 333 nm
SMILES: COc1ccc(-c2cc3c(ccc4sccc43)s2)cc1

absorption maximum (in ClCCl): 367 nm
SMILES: COc1ccc(N(c2ccc(OC)cc2)c2ccc(-c3ccc(-c4ccc5nc6ccccc6c(=O)n5c4)cc3)cc2)cc1

SMILES: CCCCCCCCCCCn1cccc1C1=[N+]2C(=Cc3c(C)cc(C)n3[B-]2(F)F)c2ccccc21
absorption maximum (in C1CCOC1): 584 nm
absorption maximum (in CC#N): 577 nm
absorption maximum (in CCCCCC): 583 nm
absorption maximum (in CO): 579 nm
absorption maximum (in Cc1ccccc1): 590 nm
absorption maximum (in ClCCl): 584 nm

absorption maximum (in C1CCCCC1): 591 nm
SMILES: CCc1c(C)c2n(c1C)[B-](F)(F)[N+]1=C(C=C3C=Cc4ccccc43)C=CC1=C2C

absorption maximum (in CS(C)=O): 401 nm
SMILES: Cc1ccc(-c2cc(/C=C/c3ccc(N(c4ccccc4)c4ccccc4)cc3)c(C#N)c(N3CCCCC3)c2)cc1

absorption maximum (in CCO): 306 nm
SMILES: O=C(c1cc(F)c(O)cc1F)c1cc(F)c(O)cc1F

SMILES: CCC1=C(C)C2=Cc3c4ccccc4c4n3[B-](c3ccncc3)(Oc3ccccc3-4)[N+]2=C1C (centres undefined)
absorption maximum (in CC#N): 621 nm
absorption maximum (in CCCCCC): 625 nm
absorption maximum (in Cc1ccccc1): 629 nm
absorption maximum (in ClCCl): 627 nm

absorption maximum (in C1CCCCC1): 286.2 nm
SMILES: COc1ccc(OC)cc1

absorption maximum (in ClCCl): 447 nm
SMILES: COCCOCCOCCOCC(COCCOCCOCCOC)Oc1cc(/C=C/c2ccc(/C=C/[N+](=O)[O-])cc2)c(OC(COCCOCCOCCOC)COCCOCCOCCOC)cc1/C=C/c1ccc(/C=C/[N+](=O)[O-])cc1

absorption maximum (in CC#N): 381.03 nm
absorption maximum (in CO): 391.71 nm
SMILES: Cn1cc(/C=C/C(=O)c2ccccc2)c2ccccc21

absorption maximum (in ClCCl): 340 nm
SMILES: CCCCn1c(-c2ccc(-c3nnc(-c4cccs4)o3)cc2)nc(-c2ccccc2)c1-c1ccccc1

absorption maximum (in C1CCOC1): 627 nm
absorption maximum (in CS(C)=O): 636 nm
absorption maximum (in ClCCl): 618 nm
SMILES: COc1cc(OC)cc(C2=C3C(C)=C(I)C(C)=[N+]3[B-](F)(F)n3c(/C=C/c4c[nH]c5ccccc45)c(I)c(C)c32)c1

absorption maximum (in ClCCl): 365 nm
SMILES: NC1=N/C(=N\c2ccccn2)c2cccc3cccc1c23

SMILES: CN(C)CCNCc1c2ccccc2cc2ccccc12
absorption maximum (in C1CCCCC1): 368 nm
absorption maximum (in C1CCOC1): 366 nm
absorption maximum (in CC#N): 365 nm
absorption maximum (in CC(C)=O): 365 nm
absorption maximum (in CCO): 366 nm
absorption maximum (in CN(C)C=O): 363 nm
absorption maximum (in CO): 364 nm
absorption maximum (in ClC(Cl)Cl): 367 nm

SMILES: Cc1cccc(NC(=O)c2ccc(N(C)C)cc2)c1
absorption maximum (in C1CCCCC1): 306 nm
absorption maximum (in C1CCOC1): 311 nm
absorption maximum (in CC#N): 314 nm
absorption maximum (in CCOCC): 306 nm

absorption maximum (in ClCCl): 609 nm
SMILES: CC1=CC(C)=[N+]2C1=Cc1c3ccccc3c(-c3[nH]c(C)cc3C)n1[B-]2(F)F

absorption maximum (in C1CCCCC1): 428 nm
absorption maximum (in C1CCOC1): 429 nm
absorption maximum (in CC#N): 427 nm
SMILES: Cn1nc(-c2ccccc2)c2nc3cc(Cl)ccc3nc21

absorption maximum (in C1CCCCC1): 455 nm
SMILES: CC(C)(C)C#Cc1ccc2c3cccc4cccc(c5cccc1c52)c43

absorption maximum (in C1CCCCC1): 310 nm
absorption maximum (in CC#N): 304 nm
SMILES: Cc1ccc(/C=C/c2ccccc2-[n+]2cc([O-])on2)cc1

absorption maximum (in ClC(Cl)Cl): 505 nm
SMILES: CCO[B-]1(OCC)n2c(C)cc(C)c2C(c2ccc(I)cc2)=C2C(C)=CC(C)=[N+]21

absorption maximum (in ClC(Cl)Cl): 390 nm
SMILES: CCCCCCN1C(=O)c2cccc3c(-c4scc5c4OCCO5)ccc(c23)C1=O

absorption maximum (in ClCCl): 497 nm
SMILES: CCCCN1C(=O)C2=C(c3ccc(-c4ccc5c(c4)C(C)(C)c4ccccc4-5)cc3)NC(=O)C2=C1c1ccc(-c2ccc3c(c2)C(C)(C)c2ccccc2-3)cc1

absorption maximum (in CCCCCC): 411 nm
SMILES: CC(C)[Si](C#Cc1ccc(C#C[Si](C(C)C)(C(C)C)C(C)C)c2nc3c(ccc4ccccc43)nc12)(C(C)C)C(C)C

absorption maximum (in ClC(Cl)Cl): 722 nm
SMILES: Cc1ccc(/C2=c3\cc/c(o3)=C(\c3ccc(C)cc3)c3ccc([nH]3)-c3ccc4n3[B-](F)(F)[N+]3=C(C=CC3=C4c3ccco3)c3ccc2[nH]3)cc1

absorption maximum (in CC#N): 398 nm
absorption maximum (in ClCCl): 400 nm
SMILES: COC(=O)c1cc(=O)n(C)c2cc(-c3cc(OC)c(OC)c(OC)c3)sc12

SMILES: N#C[Se]CCCCCOc1ccc2ccc(=O)oc2c1
absorption maximum (in C1CCCCC1): 321 nm
absorption maximum (in C1CCOC1): 322 nm
absorption maximum (in C1COCCO1): 319 nm
absorption maximum (in CC#N): 321 nm
absorption maximum (in CCCCCCC): 319 nm
absorption maximum (in CCO): 323 nm
absorption maximum (in CN(C)C=O): 322 nm
absorption maximum (in CO): 322 nm
absorption maximum (in O): 324 nm
absorption maximum (in OCCO): 326 nm

absorption maximum (in ClC(Cl)Cl): 378 nm
SMILES: CCCCCCN1C(=O)c2cccc3c(-c4cc5ccccc5s4)ccc(c23)C1=O

absorption maximum (in ClCCl): 375 nm
SMILES: CCOC(=O)c1ccc(C2CC(c3cccc4ccccc34)=NN2c2ccc(F)cc2)cc1 (centres undefined)

absorption maximum (in O): 507 nm
SMILES: COc1cc(N2CCOCCOCCN(c3cc(OC)c(NC(=O)c4ccc(-c5c6cc(Cl)c(=O)cc-6oc6cc([O-])c(Cl)cc56)c(C(=O)[O-])c4)cc3OC)CCOCC2)c(OC)cc1NC(=O)c1ccc(-c2c3cc(Cl)c(=O)cc-3oc3cc([O-])c(Cl)cc23)c(C(=O)[O-])c1

absorption maximum (in ClCCl): 478 nm
SMILES: CCN(CC)c1ccc2n1[B-](F)(F)[N+]1=CC(/C=C/C(=O)OC(C)(C)C)=CC1=C2c1c(C)cc(C)cc1C
